pIC50: −log10 of the molar value. Read-outs that look alike come from different tables or passages of the source.

The subject of assay [1] is OCUM-2MD3 cells. In words: Cell growth inhibition, OCUM-2MD3 parent cells (Test Example 7). It is filed as cell-based, human. As to conditions: OCUM-2MD3 parent cell.
The subject of assay [2] is AZD4547 resistant OCUM-2MD3 cells. In words: Cell growth inhibition, AZD4547 resistant OCUM-2MD3 cells (Test Example 7). It is filed as cell-based, human.
Assay [3] deals with purified recombinant human FGFR2 protein (Homo sapiens (Human), UniProt P21802). In words: Inhibitory effect on FGFR2 kinase activity (Test Example 1). It is filed as biochemical. As to conditions: ATP 75 μM.
Protocol: EDTA (final concentration: 30 mM) diluted with a separation buffer (Caliper Life Sciences, Inc.) was added thereto to terminate the kinase reaction. […] The level of phosphorylation was determined from the quantitative ratio.
The subject of assay [4] is OCUM-2MD3 cells. As to conditions: Homo sapiens, OCUM-2MD3, 72 h.
Protocol: Human-derived gastric cancer OCUM-2MD3 cells, which overexpressed FGFR2, were subcultured daily in a Dulbecco's modified Eagle's medium (DMEM) containing 10% fetal bovine serum (FBS) at a cell density of not more than 80%. In order to initiate a test of the cell growth-inhibitory effect of the compounds, the OCUM-2MD3 cells were suspended in the above DMEM medium and seeded in a 96-well flat-bottom plate so that each well contained 3,000 cells. Then, the cells were cultured in an incubator containing 5% carbon dioxide gas at 37° C. for one day. […] The DMSO solution of the test compound was diluted with the medium used for cultivation, and the diluted solution was added to each well of the cell culture plate so that the final concentration of DMSO became 0.5%. Then, the cells were cultured in an incubator containing 5% carbon dioxide gas at 37° C. for 72 hours. The number of cells was measured at the time of the addition of the test compound and 72 hours later after culture by using a Cell Counting Kit-8 (produced by Dojindo Laboratories) according to a protocol recommended by Dojindo Laboratories. […] After completion of the reaction, the absorbance at a wavelength of 450 nm was measured by a microplate reader. […]
T: absorbance of well to which test compound was added
C: absorbance of well to which test compound was not added
C0: absorbance of well measured before addition of compound

Sequence of purified recombinant human FGFR2 protein (P21802 22-821): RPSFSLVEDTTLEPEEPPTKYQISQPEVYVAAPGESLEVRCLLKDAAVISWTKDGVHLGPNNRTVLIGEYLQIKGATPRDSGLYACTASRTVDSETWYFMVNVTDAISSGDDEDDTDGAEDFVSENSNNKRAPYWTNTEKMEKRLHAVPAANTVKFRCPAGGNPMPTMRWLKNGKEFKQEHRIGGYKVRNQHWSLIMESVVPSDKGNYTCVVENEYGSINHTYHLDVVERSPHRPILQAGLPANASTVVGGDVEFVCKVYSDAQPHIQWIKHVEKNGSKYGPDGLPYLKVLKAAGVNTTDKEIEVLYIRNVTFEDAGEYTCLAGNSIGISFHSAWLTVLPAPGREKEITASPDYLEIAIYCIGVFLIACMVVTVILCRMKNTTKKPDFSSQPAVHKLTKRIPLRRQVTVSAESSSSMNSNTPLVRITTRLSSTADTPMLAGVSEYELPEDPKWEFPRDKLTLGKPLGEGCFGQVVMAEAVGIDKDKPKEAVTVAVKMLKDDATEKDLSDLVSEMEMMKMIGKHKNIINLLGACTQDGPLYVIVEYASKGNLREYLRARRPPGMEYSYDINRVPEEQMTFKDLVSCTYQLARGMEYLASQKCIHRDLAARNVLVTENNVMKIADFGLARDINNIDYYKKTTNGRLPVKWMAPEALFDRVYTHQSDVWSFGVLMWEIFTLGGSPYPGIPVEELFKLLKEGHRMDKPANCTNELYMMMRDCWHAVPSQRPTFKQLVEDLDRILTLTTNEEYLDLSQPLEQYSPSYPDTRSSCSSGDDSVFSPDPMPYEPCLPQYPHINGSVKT

With `CCN1CCN(c2ccc(Nc3cc(N(C)C(=O)Nc4c(Cl)c(OC)cc(OC)c4Cl)ncn3)cc2)CC1` [BGJ398], the IC50 with OCUM-2MD3 cells [1] (Homo sapiens) was found to be 7.6 nM; in assay [2] (Homo sapiens, OCUM-2MD3, read-out: Cell growth inhibition, IC50 (nM) AZD4547 resistant cells), 55.6 nM.
In the case of `C=CC(=O)N1C[C@@H](n2cc(C#Cc3cc(OC)cc(OC)c3)c3c(N)ncnc32)C[C@H]1C(=O)OC` [Ex. Compound 66, (2S,4S)-methyl 1-acryloyl-4-(4-amino-5-((3,5-dimethoxyphenyl)ethynyl)-7H-pyrrolo[2,3-d]pyrimidin-7-yl)pyrrolidine-2-carboxylate], in assay [3], the negative-log IC50 (pIC50) was greater than 9.52. In the assay with OCUM-2MD3 cells [4], the GI50 was less than 4.6 nM.
`CCOc1cc(C#Cc2nn(C3CN(C(=O)/C=C/CN(C)C)C3)c3ncnc(N)c23)cc(OCC)c1` [Ex. Compound 25, 1-(3-(4-amino-3-((3,5-diethoxyphenyl)ethynyl)-1H-pyrazolo[3,4-d]pyrimidin-1-yl)azetidin-1-yl)-4-(dimethylamino)but-2-en-1-one] displayed a GI50 with OCUM-2MD3 cells [4] of 13 nM. This lies in the double-digit nanomolar range.
As to `COc1cc(CCc2cc(NC(=O)c3ccc(N4CC(C)NC(C)C4)cc3)n[nH]2)cc(OC)c1` (centres unmarked) [AZD4547], the 50% inhibitory concentration (IC50) in the assay on OCUM-2MD3 cells [1] came to 6.1 nM; in assay [2] (read-out: Cell growth inhibition, IC50 (nM) AZD4547 resistant cells, AZD4547 resistant OCUM-2MD3 cells, range in brackets), 159 nM.
As for `CC(C)c1cc(C#Cc2nn([C@H]3CCN(C(=O)/C=C/CN(C)C)C3)c3ncnc(N)c23)cc(C(C)C)c1` [Ref. Ex. Compound 4, (S)-1-(3-(4-amino-3-((3,5-diisopropylphenyl)ethynyl)-1H-pyrazolo[3,4-d]pyrimidin-1-yl)pyrrolidin-1-yl)-4-(dimethylamino)but-2-en-1-one], the pIC50 in assay [3] was less than 5.00.

What is called IC50 is the concentration needed to halve the response being measured. What is called pIC50 is the IC50 on a negative log10 scale, so that one unit is a factor of ten. For orientation: GI50 means the concentration at which growth is held to half of that of the control. Lower therefore signals more potent growth inhibition.

The values above are taken from patent US10124003B2, “Therapeutic agent for FGFR inhibitor-resistant cancer” (TAIHO PHARMACEUTICAL CO., LTD., priority 2013, dated 2018).
